Each structure is given as a SMILES string. Read-outs that look alike come from different tables or passages of the source. Some results are limits rather than exact numbers.

For one series, the target named is T1, CYP2D6 (Homo sapiens, UniProt P10635).
T1 construct: purchased BD Gentest, Becton-Dickinson (Supersomes); host or cells: insect cells (microsomes)
The experiment in a line: Cytochrome P450 inhibition, CYP2D6. It is filed as in vitro ADME. To be noted: Supersomes; read-out: IC50 (μM) 2D6. From the text: (§1) F. Assay for Cytochrome P450 Inhibition
(§2) Cytochrome P450 enzymes are implicated in the phase I metabolism of drugs. The majority of drug-drug interactions are metabolism-based and, moreover, these interactions typically involve inhibition of cytochrome P450s. Six CYP450 enzymes (CYP1A2, CYP2C8, CYP2C9, CYP2C19, CYP2D6 and CYP3A4) appear to be commonly responsible for the metabolism of most drugs and the associated drug-drug interactions. Assays to determine the binding of compounds of the invention to the various metabolically important isoforms of cytochrome P450 metabolizing enzymes are commercially available, for example NoAb BioDiscoveries (Mississaugua, ON, Canada) and Absorption Systems (Exton, Pa., USA). As well, a number of appropriate methods have been described or reviewed in the literature. (White, R. E. Ann. Rev. Pharmacol. Toxicol. 2000, 40, 133-157; Li, A. P. Drug. Disc. Today 2001, 6, 357-366; Turpeinen, M.; Korhonen, L. E. Tolonen, A.; et al. Eur. J. Pharm. Sci. 2006, 29, 130-138.)
(§3) The concentration of the inhibitor or test compound that inhibited metabolite formation by 50% (IC50) was calculated by non-linear regression analysis of the % inhibition vs. log concentration (M) curve.

In a further series the target is T2, CYP2E1 (Homo sapiens, UniProt P05181).
T2 construct: purchased BD Gentest, Becton-Dickinson (Supersomes); host or cells: insect cells (microsomes)
The series can be described thus: Cytochrome P450 inhibition, CYP2E1. To be noted: Supersomes; read-out: IC50 (μM) 2E1. It is filed as in vitro ADME.
Text: as §1, §2, §3

A further series concerns the target T3, CYP2A6 (Homo sapiens, UniProt P11509).
T3 construct: purchased BD Gentest, Becton-Dickinson (Supersomes); host or cells: insect cells (microsomes)
T3 sequence (P11509 1-494): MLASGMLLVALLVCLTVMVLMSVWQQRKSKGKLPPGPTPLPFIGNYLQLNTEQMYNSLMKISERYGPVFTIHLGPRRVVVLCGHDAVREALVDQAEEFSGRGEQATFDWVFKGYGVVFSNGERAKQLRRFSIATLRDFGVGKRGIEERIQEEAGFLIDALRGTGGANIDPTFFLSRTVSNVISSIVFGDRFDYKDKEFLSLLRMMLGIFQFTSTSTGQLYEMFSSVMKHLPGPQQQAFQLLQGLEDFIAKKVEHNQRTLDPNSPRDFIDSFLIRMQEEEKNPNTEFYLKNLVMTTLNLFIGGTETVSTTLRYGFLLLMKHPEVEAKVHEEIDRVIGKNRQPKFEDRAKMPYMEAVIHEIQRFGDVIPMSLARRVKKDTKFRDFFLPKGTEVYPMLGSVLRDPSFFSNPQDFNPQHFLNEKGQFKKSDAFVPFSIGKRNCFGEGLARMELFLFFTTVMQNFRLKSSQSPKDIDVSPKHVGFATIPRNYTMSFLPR
The experiment in a line: Cytochrome P450 inhibition, CYP2A6. Format: in vitro ADME. To be noted: Supersomes; read-out: IC50 (μM) 2A6.
Text: as §1, §2, §3

The next series concerns the target T4, CYP3A4 (Homo sapiens, UniProt P08684).
T4 construct: purchased BD Gentest, Becton-Dickinson (Supersomes); host or cells: insect cells (microsomes)
The experiment in a line: Cytochrome P450 inhibition, CYP3A4. The settings on record: Supersomes. Format: in vitro ADME.
Text: as §1, §2, §3

The next series concerns the target T5, CYP2C9 (Homo sapiens, UniProt P11712).
T5 construct: purchased BD Gentest, Becton-Dickinson (Supersomes); host or cells: insect cells (microsomes)
The experiment in a line: Cytochrome P450 inhibition, CYP2C9. It is filed as in vitro ADME. The settings on record: Supersomes; read-out: IC50 (μM) 2C9.
Text: as §1, §2, §3

For series [1], the system named is irinotecan-induced CID in dogs. The experiment in a line: Dog model of chemotherapy-induced diarrhea. It is filed as in vivo. To be noted: FIG. 19. An excerpt:
The objective of this study was to determine the efficacy of representative macrocyclic compounds of the present invention in chemotherapy-induced diarrhea (CID) following intravenous administration to the male beagle dog (Canis familiaris) for up to 32 days. Comparison with existing agents utilized for this condition, octreotide and loperamide, was an additional objective.
Twenty-one (21) male naïve Beagle dogs were randomly assigned to 7 groups and treated as follows:
The test compounds, controls and comparators were prepared at appropriate intervals. All formulations intended for administration to the test animals were stored refrigerated at 2-8° C. Irinotecan was obtained as a sterile solution for intravenous injection containing irinotecan hydrochloride trihydrate at a concentration of 20 mg/mL, ready to use. The irinotecan formulation for dosing the animals (0.5 mg/mL) in Group 1 (Cycles 1 and 2 only) was achieved by dilution of 20 mg/mL formulation with 5% dextrose for injection, USP. […]
A total of 21 males and 2 spare males were obtained from a commercial supplier (for example Marshall BioResources, North Rose, N.Y.) with ages 5 to 7 months old at onset of treatment and weights 6-9 kg at onset of treatment. […] Temperature and relative humidity were monitored continuously and recorded 4 times daily. […]

The mark [2] stands for this setting: substrate BFC, read-out: IC50 (μM) 3A4 (BFC).
[3] abbreviates: substrate BQ, read-out: IC50 (μM) 3A4 (BQ).

T4 sequence (P08684 whole entry): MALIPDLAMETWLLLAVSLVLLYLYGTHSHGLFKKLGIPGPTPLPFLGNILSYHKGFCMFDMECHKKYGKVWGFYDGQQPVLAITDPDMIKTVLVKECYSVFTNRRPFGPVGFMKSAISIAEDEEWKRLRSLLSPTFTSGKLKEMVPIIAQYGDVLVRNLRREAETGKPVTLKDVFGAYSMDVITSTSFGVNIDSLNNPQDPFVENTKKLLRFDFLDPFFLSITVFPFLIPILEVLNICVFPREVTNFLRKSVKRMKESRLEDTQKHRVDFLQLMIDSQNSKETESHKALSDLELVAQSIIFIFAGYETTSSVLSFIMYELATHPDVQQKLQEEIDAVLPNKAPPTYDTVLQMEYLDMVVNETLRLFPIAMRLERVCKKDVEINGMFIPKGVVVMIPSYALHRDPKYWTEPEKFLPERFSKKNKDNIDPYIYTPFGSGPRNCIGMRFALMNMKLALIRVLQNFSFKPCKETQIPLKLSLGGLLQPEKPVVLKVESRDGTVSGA
T5 sequence (P11712 whole entry): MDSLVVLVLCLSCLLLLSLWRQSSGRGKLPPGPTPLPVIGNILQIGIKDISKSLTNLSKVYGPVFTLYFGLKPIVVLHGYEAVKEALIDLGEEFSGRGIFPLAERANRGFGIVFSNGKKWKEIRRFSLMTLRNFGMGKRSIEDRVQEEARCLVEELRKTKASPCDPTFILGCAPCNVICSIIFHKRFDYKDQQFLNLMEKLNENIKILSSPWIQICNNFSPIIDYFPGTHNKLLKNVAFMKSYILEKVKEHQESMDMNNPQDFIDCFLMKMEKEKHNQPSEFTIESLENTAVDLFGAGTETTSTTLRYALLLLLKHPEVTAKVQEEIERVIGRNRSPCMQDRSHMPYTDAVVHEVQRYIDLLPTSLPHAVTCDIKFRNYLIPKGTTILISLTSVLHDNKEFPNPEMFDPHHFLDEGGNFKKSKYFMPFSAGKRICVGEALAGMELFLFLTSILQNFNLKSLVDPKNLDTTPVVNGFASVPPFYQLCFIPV
T2 sequence (P05181 whole entry): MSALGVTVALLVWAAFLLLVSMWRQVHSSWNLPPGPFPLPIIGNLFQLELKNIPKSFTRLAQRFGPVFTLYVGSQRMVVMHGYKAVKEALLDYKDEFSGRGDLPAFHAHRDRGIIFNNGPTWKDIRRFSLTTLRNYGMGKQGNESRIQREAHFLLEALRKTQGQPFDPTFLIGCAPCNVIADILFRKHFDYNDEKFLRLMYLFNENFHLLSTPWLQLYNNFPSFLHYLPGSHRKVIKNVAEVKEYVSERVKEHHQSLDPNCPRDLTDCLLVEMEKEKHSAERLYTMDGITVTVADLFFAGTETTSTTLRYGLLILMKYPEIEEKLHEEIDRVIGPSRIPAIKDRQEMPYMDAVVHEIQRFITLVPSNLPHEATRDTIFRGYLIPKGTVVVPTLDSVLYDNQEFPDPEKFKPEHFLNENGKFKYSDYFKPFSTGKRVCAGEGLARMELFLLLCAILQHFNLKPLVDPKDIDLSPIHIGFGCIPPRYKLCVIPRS
T1 sequence (P10635 whole entry): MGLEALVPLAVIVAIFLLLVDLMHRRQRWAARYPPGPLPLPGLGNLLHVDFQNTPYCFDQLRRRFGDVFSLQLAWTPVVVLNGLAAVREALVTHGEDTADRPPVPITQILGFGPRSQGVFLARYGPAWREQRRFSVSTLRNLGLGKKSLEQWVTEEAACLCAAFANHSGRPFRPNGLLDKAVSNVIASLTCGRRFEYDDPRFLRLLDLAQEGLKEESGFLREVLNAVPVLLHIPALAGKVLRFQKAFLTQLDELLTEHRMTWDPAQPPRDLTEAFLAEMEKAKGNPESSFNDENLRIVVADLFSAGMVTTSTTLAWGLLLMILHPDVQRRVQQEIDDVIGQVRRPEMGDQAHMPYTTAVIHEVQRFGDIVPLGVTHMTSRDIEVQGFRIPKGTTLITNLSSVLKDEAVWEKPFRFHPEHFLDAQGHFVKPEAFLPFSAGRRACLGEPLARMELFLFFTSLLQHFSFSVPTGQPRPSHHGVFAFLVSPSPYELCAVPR

Usually IC50 stands for the point on the concentration scale where inhibition reaches its midpoint. As to `CCC[C@@H]1NC(=O)[C@@H](C(C)C)NC(=O)[C@@H](Cc2cccc(F)c2)N[C@@H](C)COc2ccccc2CCCNC1=O` [Compound 551], the IC50 on CYP2D6 is 30.1 µM; at CYP2E1, over 100 µM; on CYP2A6, over 100 µM; on CYP3A4 (setting [2]), 2.37 µM; at CYP3A4 (setting [3]), 10.4 µM; on CYP2C9 it was 26.9 µM.

Take `CCC[C@@H]1NC(=O)[C@@H](C(C)C)NC(=O)[C@@H](Cc2ccc(O)c(Cl)c2)N[C@@H](C)COc2ccccc2CCCNC1=O` [Compound 552]: the “efficacy in the treatment of irinotecan-induced CID” value in series [1] (intravenous infusion, versus the current standard of care (octreotide, loperamide)) is on record as “superior efficacy”. In addition, the “onset and duration of action in irinotecan-induced CID” value in series [1] (versus the current standard of care) is “quicker onset and longer duration of action”.

For `CCC[C@@H]1NC(=O)[C@@H](C(C)C)NC(=O)[C@@H](Cc2ccc(O)c(C(C)(C)C)c2)NCCOc2ccccc2CCCNC1=O` [Compound 553], the IC50 at CYP2D6 is 80.8 µM; on CYP2E1, over 100 µM; at CYP2A6 it was over 100 µM; on CYP3A4 (setting [2]), 0.0192 µM; at CYP3A4 (setting [3]), 3.48 µM; at CYP2C9, 44.5 µM.
